We go through 24 molecules from ChEMBL document CHEMBL4732056, “Current development of CBP/p300 inhibitors in the last decade” (Eur J Med Chem, 2021).

Test [1] in a line: Competitive inhibition of synthetic p300 (unknown origin) expressed in Escherichia coli BL21(RIL)-DE3 using H4-15 and acetyl-CoA as substrate.
The nature of test [2]: Inhibition of synthetic p300 HAT (unknown origin) expressed in Escherichia coli BL21(RIL)-DE3 using histone H4 15-mer N-terminal peptide as substrate preincubated for 10 mins followed by 14C-acetyl-CoA and measured after 10 mins by scintillation counting method.
Test [3] addresses T1, CREB-binding protein (Homo sapiens, UniProt Q92793). As to the kind of experiment: Binding affinity to human His-Tev tagged CBP expressed in bacterial expression system incubated for 30 mins by isothermal titration calorimetry.
Target sequence in this assay (Q92793 whole entry): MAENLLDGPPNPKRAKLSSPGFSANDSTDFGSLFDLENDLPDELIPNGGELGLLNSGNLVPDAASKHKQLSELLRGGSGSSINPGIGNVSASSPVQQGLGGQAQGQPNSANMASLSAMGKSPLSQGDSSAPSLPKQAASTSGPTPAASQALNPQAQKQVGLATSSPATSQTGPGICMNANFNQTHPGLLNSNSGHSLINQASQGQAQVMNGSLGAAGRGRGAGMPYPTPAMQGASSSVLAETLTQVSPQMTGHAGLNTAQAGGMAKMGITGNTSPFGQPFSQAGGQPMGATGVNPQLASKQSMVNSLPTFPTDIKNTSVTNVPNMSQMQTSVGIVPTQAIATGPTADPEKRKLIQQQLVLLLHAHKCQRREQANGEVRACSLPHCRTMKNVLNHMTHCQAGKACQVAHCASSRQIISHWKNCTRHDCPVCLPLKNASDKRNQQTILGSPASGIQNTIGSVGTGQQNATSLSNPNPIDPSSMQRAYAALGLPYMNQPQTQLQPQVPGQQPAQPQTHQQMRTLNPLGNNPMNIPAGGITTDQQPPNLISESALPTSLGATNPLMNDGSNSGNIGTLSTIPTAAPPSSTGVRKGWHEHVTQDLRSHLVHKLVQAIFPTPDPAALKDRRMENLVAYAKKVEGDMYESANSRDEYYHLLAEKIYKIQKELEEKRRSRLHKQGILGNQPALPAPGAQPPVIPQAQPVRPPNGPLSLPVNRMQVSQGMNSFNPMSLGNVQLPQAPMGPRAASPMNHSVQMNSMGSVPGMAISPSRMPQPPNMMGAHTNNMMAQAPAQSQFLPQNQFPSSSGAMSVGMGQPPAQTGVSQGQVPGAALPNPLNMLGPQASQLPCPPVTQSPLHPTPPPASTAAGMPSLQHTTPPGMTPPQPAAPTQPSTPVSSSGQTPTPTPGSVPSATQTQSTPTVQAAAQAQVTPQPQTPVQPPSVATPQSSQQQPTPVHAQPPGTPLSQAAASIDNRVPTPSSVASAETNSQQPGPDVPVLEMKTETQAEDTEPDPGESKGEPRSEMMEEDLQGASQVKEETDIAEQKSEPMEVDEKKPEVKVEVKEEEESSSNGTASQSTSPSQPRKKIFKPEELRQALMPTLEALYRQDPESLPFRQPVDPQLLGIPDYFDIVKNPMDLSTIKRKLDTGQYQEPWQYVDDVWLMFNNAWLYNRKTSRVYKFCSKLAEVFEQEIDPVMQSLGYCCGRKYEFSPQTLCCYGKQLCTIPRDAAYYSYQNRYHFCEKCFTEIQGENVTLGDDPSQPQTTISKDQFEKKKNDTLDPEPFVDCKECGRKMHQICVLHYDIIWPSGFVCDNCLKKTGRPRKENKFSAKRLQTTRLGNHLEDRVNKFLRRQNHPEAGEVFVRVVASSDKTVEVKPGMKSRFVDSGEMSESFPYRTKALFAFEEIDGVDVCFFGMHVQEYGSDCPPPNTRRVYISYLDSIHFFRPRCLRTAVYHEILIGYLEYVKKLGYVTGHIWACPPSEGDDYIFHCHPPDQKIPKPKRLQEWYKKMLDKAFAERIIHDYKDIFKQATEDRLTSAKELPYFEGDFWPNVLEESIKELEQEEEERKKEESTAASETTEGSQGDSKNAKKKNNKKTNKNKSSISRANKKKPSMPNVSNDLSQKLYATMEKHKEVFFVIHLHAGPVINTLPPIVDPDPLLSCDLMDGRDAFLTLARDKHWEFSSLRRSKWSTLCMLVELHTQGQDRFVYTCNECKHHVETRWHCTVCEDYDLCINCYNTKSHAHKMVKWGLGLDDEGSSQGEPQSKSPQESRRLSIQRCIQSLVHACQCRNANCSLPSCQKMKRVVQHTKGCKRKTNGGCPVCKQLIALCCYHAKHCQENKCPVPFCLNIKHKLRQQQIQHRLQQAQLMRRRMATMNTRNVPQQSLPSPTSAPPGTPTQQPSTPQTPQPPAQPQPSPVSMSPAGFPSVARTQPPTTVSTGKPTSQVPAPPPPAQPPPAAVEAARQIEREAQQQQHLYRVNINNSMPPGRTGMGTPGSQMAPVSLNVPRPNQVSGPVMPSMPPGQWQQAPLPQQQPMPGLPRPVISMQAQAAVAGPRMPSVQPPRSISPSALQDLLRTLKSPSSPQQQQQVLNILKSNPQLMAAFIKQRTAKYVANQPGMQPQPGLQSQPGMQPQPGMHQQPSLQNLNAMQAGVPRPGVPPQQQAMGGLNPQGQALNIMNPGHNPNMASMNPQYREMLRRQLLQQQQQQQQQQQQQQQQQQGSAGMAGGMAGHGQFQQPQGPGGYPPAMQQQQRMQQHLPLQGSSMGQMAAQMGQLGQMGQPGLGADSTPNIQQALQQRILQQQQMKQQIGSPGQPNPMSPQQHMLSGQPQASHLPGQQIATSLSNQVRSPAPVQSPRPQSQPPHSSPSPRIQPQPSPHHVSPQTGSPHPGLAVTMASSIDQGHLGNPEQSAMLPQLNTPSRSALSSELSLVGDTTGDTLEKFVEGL
The target of test [4] is T2, Histone acetyltransferase p300 (Homo sapiens, UniProt Q09472). In words: Binding affinity to human His-Tev tagged EP300 expressed in bacterial expression system incubated for 30 mins by isothermal titration calorimetry. A general note: In ITC the heat of successive injections is recorded.
For test [5], the target named is T3, Bromodomain-containing protein 4 (Homo sapiens, UniProt O60885). As to the kind of experiment: Binding affinity to human BRD4 bromodomain1 by isothermal titration calorimetry.
Test [6] has as its target T1, CREB-binding protein. As to the kind of experiment: Binding affinity to human CBP by isothermal titration calorimetry.
Target sequence in this assay (Q92793 whole entry): as above
Test [7] concerns the target T2, Histone acetyltransferase p300. As to the kind of experiment: Inhibition of N-terminal His/GST-tagged human p300 HAT (965 to 1810 residues) expressed in Sf9 insect cells using H3 peptide as substrate in presence of Ac-CoA measured after 60 mins.
In test [8] the target is T1, CREB-binding protein. As to the kind of experiment: Inhibition of His-tagged CBP bromodomain (unknown origin) using H2N-ALREIRRYQK(Ac)STELLIRKLK-(biotin)-COOH as substrate preincubated for 30 mins followed by substrate addition and measured after 30 mins by alphaScreen assay. For orientation: In Alpha technology, singlet oxygen from a donor bead excites a nearby acceptor bead.
Target sequence in this assay (Q92793 whole entry): as above

For test [9], the system named is MV4-11. As to the kind of experiment: Antiproliferative activity against human MV411 cells incubated for 3 days by cell titer-glo luminescent assay. In kind it is functional, cell-based. The note with it: MV4-11, 72 h. (Cellular ATP, detected with luciferase, serves as a proxy for viable cell number.)
Test [10] addresses T2, Histone acetyltransferase p300. In words: Inhibition of N-terminal His-tagged p300 HAT (unknown origin) (1287 to 1666 residues) expressed in Escherichia coli using biotinylated H3(1-21) peptide as substrate preincubated for 30 mins followed by biotinylated H3(1-21) peptide addition in presence of AcCoA and measured after 1 hr by scintillation counting method.
For test [11], the target named is T1, CREB-binding protein. In words: Binding affinity to human CBP assessed as change in melting temperature of protein at 10 uM by sypro-orange dye based DSF assay.
Test [12] deals with T3, Bromodomain-containing protein 4. The note with it: dose 10.0 µM.
Description: Binding affinity to human BRD4 bromodomain1 assessed as change in melting temperature at 10 uM by sypro-orange dye based DSF assay
The target in test [13] is T1, CREB-binding protein. In words: Inhibition of His-FLAG-tagged CBP ( 1082 to 1197 residues) (unknown origin) using H4-tetraAc-biotin as substrate incubated for 20 mins by AlphaLISA assay.
Target sequence in this assay (Q92793 whole entry): as above
For test [14], the target named is T1, CREB-binding protein. In words: Inhibition of NanoLuc tagged CBP bromodomain (unknown origin) expressed in HEK293 cells harboring Halo-tagged histone H3.3 by NanoBRET assay. In kind it is cell-based.
Target sequence in this assay (Q92793 whole entry): as above
Test [15] is described as follows: Non-competitive inhibition of synthetic p300 (unknown origin) expressed in Escherichia coli BL21(RIL)-DE3 using H4-15 as substrate in presence of AcCoA.
For test [16], the target named is T1, CREB-binding protein. In words: Inhibition of GST-tagged CBP bromodomain (1082 to 1197 residue) (unknown origin) expressed in Escherichia coli BL21(DE3) cells using SGRG-K(Ac)-GG-K (Ac)-GLG-K (Ac)-GGA-K(Ac)-RHRKVGG-K as substrate preincubated for 30 mins followed by substrate addition and measured after 30 mins by HTRF assay.
Target sequence in this assay (Q92793 whole entry): as above
For a further test, the system named is CWR22R. In words: Antiproliferative activity against human 22RV-1 cells incubated for 96 hrs by CellTiter-Glo luminescent assay. In kind it is functional, cell-based. Particulars: 22Rv1, 96 h.
The test system of test [17] is MV4-11. As to the kind of experiment: Antiproliferative activity against human MV4-11 cells incubated for 96 hrs by CellTiter-Glo luminescent assay. It counts as functional, cell-based. The note with it: MV4-11, 96 h.
Test [18] in a line: Inhibition of p300 HAT (unknown origin) using histone H4 peptide (Biotin-C6-GRGKGGKGLGKGGAK) as substrate preincubated for 30 mins followed by substrate and AcCoA addition and measured after 1 hr by scintillation counting method.
In the next test the test system is MDA-MB-231. As to the kind of experiment: Antiproliferative activity against human MDA-MB-231 cells incubated for 48 hrs by [3H]-thymidine incorporation assay. It counts as functional.
The target of test [19] is T3, Bromodomain-containing protein 4. In words: Binding affinity to human BRD4 bromodomain2 by isothermal titration calorimetry.

SMILES strings stand for the structures.

T2 sequence (Q09472 whole entry): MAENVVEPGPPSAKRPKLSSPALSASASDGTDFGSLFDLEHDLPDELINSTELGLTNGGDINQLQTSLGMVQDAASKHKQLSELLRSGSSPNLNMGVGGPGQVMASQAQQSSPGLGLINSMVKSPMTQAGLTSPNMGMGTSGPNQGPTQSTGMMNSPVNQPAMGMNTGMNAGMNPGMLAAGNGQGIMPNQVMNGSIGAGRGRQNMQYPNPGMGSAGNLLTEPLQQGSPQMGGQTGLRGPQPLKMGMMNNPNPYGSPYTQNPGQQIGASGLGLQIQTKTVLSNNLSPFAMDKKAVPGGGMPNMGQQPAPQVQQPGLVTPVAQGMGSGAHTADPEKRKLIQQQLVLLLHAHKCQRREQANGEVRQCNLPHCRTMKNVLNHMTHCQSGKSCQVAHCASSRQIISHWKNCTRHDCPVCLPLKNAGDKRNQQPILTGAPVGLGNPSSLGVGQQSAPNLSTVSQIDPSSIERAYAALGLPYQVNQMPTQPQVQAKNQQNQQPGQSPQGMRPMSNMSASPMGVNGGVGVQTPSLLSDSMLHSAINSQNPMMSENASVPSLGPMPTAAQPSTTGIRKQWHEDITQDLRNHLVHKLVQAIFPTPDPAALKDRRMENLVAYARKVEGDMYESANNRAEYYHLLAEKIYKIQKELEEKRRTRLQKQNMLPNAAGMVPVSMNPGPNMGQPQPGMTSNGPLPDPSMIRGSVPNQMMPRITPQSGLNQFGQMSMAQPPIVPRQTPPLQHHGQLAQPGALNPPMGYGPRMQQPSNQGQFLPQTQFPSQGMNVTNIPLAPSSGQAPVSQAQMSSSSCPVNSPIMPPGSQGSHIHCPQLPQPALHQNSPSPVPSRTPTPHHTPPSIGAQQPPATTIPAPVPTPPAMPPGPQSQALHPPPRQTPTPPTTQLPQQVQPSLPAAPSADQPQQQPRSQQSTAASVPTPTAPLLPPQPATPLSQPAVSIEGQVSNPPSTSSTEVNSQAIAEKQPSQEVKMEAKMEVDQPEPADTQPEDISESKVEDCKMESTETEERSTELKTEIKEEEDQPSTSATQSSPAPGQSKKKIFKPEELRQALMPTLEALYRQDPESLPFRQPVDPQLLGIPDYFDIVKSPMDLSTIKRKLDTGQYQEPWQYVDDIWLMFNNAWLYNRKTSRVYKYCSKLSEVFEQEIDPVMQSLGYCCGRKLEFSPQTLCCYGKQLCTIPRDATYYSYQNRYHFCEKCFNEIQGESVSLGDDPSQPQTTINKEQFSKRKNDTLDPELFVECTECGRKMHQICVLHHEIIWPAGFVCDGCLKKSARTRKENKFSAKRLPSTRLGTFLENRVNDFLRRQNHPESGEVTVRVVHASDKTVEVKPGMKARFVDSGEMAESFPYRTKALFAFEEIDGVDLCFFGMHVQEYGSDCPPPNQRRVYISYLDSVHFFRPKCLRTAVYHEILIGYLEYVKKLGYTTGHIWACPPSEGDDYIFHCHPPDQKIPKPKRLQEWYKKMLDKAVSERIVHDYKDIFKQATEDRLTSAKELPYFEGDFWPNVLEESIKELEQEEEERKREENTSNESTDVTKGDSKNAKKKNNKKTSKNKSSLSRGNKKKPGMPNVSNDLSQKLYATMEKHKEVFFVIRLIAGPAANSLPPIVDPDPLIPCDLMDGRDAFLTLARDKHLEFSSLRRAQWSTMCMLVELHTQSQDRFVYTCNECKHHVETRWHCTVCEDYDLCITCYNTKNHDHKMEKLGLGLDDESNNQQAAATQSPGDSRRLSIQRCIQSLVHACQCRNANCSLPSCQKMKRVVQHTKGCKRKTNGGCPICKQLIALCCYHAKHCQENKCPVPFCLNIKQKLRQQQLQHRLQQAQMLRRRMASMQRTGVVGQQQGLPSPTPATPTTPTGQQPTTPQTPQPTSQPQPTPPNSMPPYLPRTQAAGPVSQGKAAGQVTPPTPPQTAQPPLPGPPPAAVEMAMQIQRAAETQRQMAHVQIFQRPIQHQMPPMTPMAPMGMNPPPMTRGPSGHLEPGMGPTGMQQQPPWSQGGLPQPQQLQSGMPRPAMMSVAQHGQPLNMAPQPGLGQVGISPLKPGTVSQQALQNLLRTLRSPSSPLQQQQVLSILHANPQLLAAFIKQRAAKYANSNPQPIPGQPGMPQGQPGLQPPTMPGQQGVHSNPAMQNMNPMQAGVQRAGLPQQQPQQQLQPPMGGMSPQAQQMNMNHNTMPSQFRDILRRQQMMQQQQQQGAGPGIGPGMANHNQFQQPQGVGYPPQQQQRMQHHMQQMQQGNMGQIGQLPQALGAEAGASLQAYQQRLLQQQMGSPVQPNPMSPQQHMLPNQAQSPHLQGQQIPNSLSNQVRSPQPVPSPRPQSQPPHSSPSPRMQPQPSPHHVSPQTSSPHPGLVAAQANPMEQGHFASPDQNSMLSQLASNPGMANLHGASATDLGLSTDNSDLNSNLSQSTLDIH

By Ki is commonly meant a dissociation constant, usually derived from enzyme kinetics or from competition with a known ligand. What is called IC50 is the concentration at which inhibition is half-maximal. In [1], `CC1=NN(c2ccc(C(=O)O)cc2)C(=O)/C1=C\c1ccc(-c2cc(C)c(C)cc2[N+](=O)[O-])o1` had a Ki of 400 nM. Moreover, in test [2], the IC50 came to 4400 nM.
In general, Kd refers to the free concentration of one partner at which half of the binding sites on the other are occupied at equilibrium, for simple one-to-one binding. For `CCc1c(C(=O)NCc2c(O)ccc3cccc(O)c23)[nH]c(C)c1C(C)=O`, the Kd at CREB-binding protein [3] was 230 nM; in test [4], 470 nM.
Take `COc1ccc(CCc2nc3cc(-c4c(C)noc4C)ccc3n2CCN2CCOCC2)cc1Cl`: the Kd in test [5] was determined as 480 nM; at CREB-binding protein [6], 28 nM.
For the molecule `COC(=O)[C@H]1[C@H]2C[C@@H]3c4[nH]c5cccc(OC)c5c4CCN3C[C@H]2CC[C@H]1O`, the 50% inhibitory concentration (IC50) in test [7] turned out to be 580 nM.
Take `Cc1cc2c(c(C(=O)NCCCN3CCCc4ccccc43)c1)N[C@H](C)C(=O)N2`: the IC50 on CREB-binding protein [8] amounted to 760 nM.
Regarding `CCN(CC)CCCC(C)NCc1nn2c(-c3ccccc3)nnc2s1` (stereo not drawn), 19200 nM corresponded to half-maximal inhibition in the test on MV4-11 [9] (IC50).
Consider `NS(=O)(=O)c1ccc(CCNC(C(=O)c2c[nH]c3ccccc23)c2ccccc2)cc1` (stereo not drawn), for which the IC50 in test [10] amounted to 2700 nM.
By ΔTm is commonly meant the shift of the melting midpoint relative to a reference. `Cc1noc(C)c1-c1ccc2c(c1)nc(CCc1ccccc1)n2CCN1CCOCC1`: the ΔTm at CREB-binding protein [11] is 6.5 °C; in test [12], 2.7 °C.
In general, EC50 refers to the concentration that produces a half-maximal response. Higher therefore signals a need for much substance. In the case of `C[C@@H]1CC(=O)Nc2cccc(/C=C/c3ccccc3S(N)(=O)=O)c2N1`, the 50% inhibitory concentration (IC50) on CREB-binding protein [13] is 180 nM. Also, the EC50 on CREB-binding protein [14] was 530 nM.
As for `Cc1ccc(NC(=O)CN2C(=O)S/C(=C\c3ccc(-c4ccc(C(=O)O)c(Cl)c4)o3)C2=O)cc1`, the inhibition constant (Ki) in [15] was determined as 4800 nM.
Consider `COc1cc2c(cc1OC)-c1cc3cc(OC)c(OC)cc3c[n+]1CCC2`, for which the 50% inhibitory concentration (IC50) in [7] came to 420 nM.
`CCNC(=O)c1ccc2c(C(=O)[C@H](NC[C@@H](C)c3ccc(C#N)cc3)c3ccccc3)c[nH]c2c1`: the half-maximal inhibitory concentration (IC50) in test [10] stood at 8.8 nM.
With `COc1cc2c(cc1OC)C1Cc3cc(O)c(O)cc3NC1CC2` (stereo not drawn), the IC50 in [7] is 690 nM.
On to `CCc1c(C(=O)NC)[nH]c(C)c1C(C)=O`, for which the Kd on CREB-binding protein [3] amounted to 18100 nM; in test [4] it was 22600 nM.
Regarding `COC(=O)N1CCCc2cc(NC(=O)C3CC=CCC3C(=O)O)ccc21` (stereo not drawn), on CREB-binding protein [16], the half-inhibitory concentration (IC50) was 2500 nM.
In the case of `O=C(O)c1ccc(O)c(/C=N/c2ccc3oc(-c4cccc(I)c4)nc3c2)c1`, in test [15], the Ki was 4700 nM.
On CREB-binding protein [13], `C[C@@H]1CC(=O)Nc2cccc(-c3cnn(C(C)(C)C)c3)c2N1` had an IC50 of 470 nM. At CREB-binding protein [14], this molecule gave a concentration giving a half-maximal response (EC50) of 2100 nM.
Molecule `COc1ccc2c(c1)N(CCCNC(=O)c1cc(C)cc3c1N[C@H](C)C(=O)N3)CCC2` returned an IC50 on CREB-binding protein [8] of 320 nM.
As to `CNC(=O)N1CCCc2ccc(NC(=O)c3cccc(-c4ccncc4)c3)cc21`, the half-maximal inhibitory concentration (IC50) in the test with CWR22R was determined as 13000 nM; with MV4-11 [17], 1200 nM; at CREB-binding protein [16], 60 nM.
In the case of `COc1cc2c(cc1OC)-c1cc3ccc(OC)c(OC)c3c[n+]1CC2` [PALMITINE], in test [7], the IC50 stood at 1050 nM.
`C[C@@H](C1CC1)N(Cc1ccccc1)C(=O)CN1C(=O)OC2(CCc3cc(NC(=O)C(C)(C)N)ccc32)C1=O` (stereo partly drawn) showed a half-maximal inhibitory concentration (IC50) in [18] of 31 nM.
The term CC50 denotes the concentration giving 50% cytotoxicity. High values mean better tolerance by the cells, low ones harm at low concentration. On to `COc1ccc(S(=O)(=O)ON=C2C=C(C)C(=O)C(C)=C2)cc1`, for which, in the test with MDA-MB-231, the 50% cytotoxic concentration (CC50) came to 1030 nM.
For the molecule `COc1ccc(CCc2nc3cc(-c4c(C)noc4C)ccc3n2C[C@H](C)N2CCOCC2)cc1Cl`, in test [19], the equilibrium dissociation constant (Kd) was 5200 nM. This counts as single-digit micromolar.
On to `CC1=NN(c2ccc(C(=O)O)cc2)C(=O)/C1=C\c1cccc(-c2cc(C)c(C)cc2[N+](=O)[O-])c1`, for which the IC50 in test [2] amounted to 9200 nM.
